As a reminder, the EC50 is the concentration giving half of the maximal effect. Lower therefore signals an effect from little substance.

22 molecules from patent publication US10864211B2, “Hydroxy isoxazole compounds useful as GPR120 agonists” (Merck Sharp & Dohme Corp., priority 2016, dated 2020) can be followed below.

One test concerns the target T1, rat GPR120 (Rattus norvegicus, UniProt Q2AC31).
T1 construct: expressed in transfected cells; host or cells: HEK293
T1 sequence (Q2AC31 1-361): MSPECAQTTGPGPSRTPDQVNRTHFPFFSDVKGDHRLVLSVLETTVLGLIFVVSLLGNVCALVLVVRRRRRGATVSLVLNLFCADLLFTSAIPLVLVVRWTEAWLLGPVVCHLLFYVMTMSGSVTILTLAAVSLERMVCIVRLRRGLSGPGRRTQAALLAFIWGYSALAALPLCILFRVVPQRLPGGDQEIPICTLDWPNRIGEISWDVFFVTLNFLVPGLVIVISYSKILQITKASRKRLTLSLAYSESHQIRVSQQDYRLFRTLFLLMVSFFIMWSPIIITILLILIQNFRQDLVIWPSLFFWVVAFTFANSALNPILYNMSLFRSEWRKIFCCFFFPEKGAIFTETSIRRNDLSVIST
In words: Rat GPR120 IP1 assay (inositol phosphate turnover). In kind it is cell-based. The following applies: IP1 accumulation in HEK293 cells stably expressing rat GPR120. From the text:
The binding of small molecule agonists to the G-protein-coupled receptor GPR120 activates phospholipase C, and leads to the generation of inositol 1,4,5-trisphosphate (InsP3 or IP3). IP3 is subsequently de-phosphorylated to IP1, which accumulates in cells and is stable in the presence of lithium chloride.
In the present method, agonist-induced activation of the human and rat GPR120 receptor was monitored by measuring the accumulation of IP1 in CHO-K1 cells that were stably expressing the short form of human GPR120 (Accession #NM_001195755) or HEK293 cells stably expressing rat GPR120 (Accession #NM_001047088). Following agonist addition, GPR120 activation and subsequent accumulation of IP1 was measured using a homogeneous Time Resolved Fluorescence-based ELISA commercially available from CisBio (IP-one ELISA Kit). The IP-One ELISA was a competitive immunoassay which uses IP1 labeled with […] and a terbium cryptate-labeled anti-IP1 monoclonal antibody. […] The signal loss was then back calculated to IP1 concentration using an IP1 standard curve. Determination of IP1 concentration was a direct measure of GPR120 activation and was used to determine compound potency (EC50).
Human GPR120 stable cell-lines were generated in CHO cells. The expression plasmids were transfected using lipofectamine (Life Technologies) following manufacturer's instructions. Stable cell-lines were generated following drug selection and single cell cloning. Rat GPR120 stable cell-lines were generated in HEK cells using the Jump-In™ cell engineering platform (Life Technologies) following manufacturer's instructions. Stable cell-lines were generated following drug selection and single cell cloning.
The assay was performed in 384-well format. CHO cells stably expressing human GPR120 were plated at 20,000 cells per well in growth medium (DMEM/F12, 10% fetal calf serum). HEK293 cells stably expressing rat GPR120 were plated at […] per well in growth medium (DMEM, 10% fetal calf serum). Cell plates were then incubated 16 hours at 37 degrees in a 5% CO2 incubator. Measurement of Inositol Phosphate Turnover (IP1) was performed using the CisBio IP-One kit (Part number 62IPAPEB). After the 16 hour incubation, the growth media was removed by centrifugation using the BlueWasher (AusWasher GUI Ver. v1.0.1.8) Protocol #21-“Light Dry” and 10 μl of stimulation buffer (prepared as described in the kit) was added to each well. In a separate plate, compounds were diluted in DMSO (200-fold over the final concentration in the assay well) and 50 nl was acoustically transferred to the appropriate well in the assay cell plate. The plates were then incubated for 60 minutes at 37 degrees in a 5% CO2 incubator. 10 μl of detection buffer (also prepared as described in the IP-One kit) was added to each well and the plates were incubated at room temperature for 60 minutes in the dark. The plates were then read in a Perkin ElmerEnVision or equivalent reader able to measure FRET. Fluorescent ratio of emission at 665 and 620 nm was then converted to the IP1 concentration by back calculating from an IP1 standard curve prepared at the time of the assay. The data was normalized to % activity using a reference compound, and the EC50 values were determined using a standard 4-parameter fit.

Another test addresses T2, human GPR120 (Homo sapiens, UniProt Q5NUL3).
T2 construct: expressed in transfected cells; host or cells: CHO-K1
T2 sequence (Q5NUL3 1-361): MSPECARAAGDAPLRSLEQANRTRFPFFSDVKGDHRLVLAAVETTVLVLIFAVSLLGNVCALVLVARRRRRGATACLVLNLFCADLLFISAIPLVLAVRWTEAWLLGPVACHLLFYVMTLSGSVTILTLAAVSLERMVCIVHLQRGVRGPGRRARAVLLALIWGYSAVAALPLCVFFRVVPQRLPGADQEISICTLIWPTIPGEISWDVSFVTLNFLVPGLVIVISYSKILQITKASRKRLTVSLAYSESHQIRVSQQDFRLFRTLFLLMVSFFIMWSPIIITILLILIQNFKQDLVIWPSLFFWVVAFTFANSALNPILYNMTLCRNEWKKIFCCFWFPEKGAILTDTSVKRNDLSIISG
Put plainly: Human GPR120 IP1 assay (inositol phosphate turnover). The following applies: IP1 accumulation in CHO-K1 cells stably expressing the short form of human GPR120. The format is cell-based. In a few lines: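 Human receptor (short form) was stably expressed in CHO-K1 cells and rat receptor in HEK293 cells. Cells were exposed to compound for 60 min at 37° C in kit stimulation buffer. IP1 was quantified by HTRF 665/620 nm ratio against a standard curve, normalized to a reference compound, with EC50 from 4-parameter fits.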

For the molecule `Oc1cc(-c2ccc(O[C@H]3C[C@H](c4ccc(F)cc4)C3)cc2)on1` [Example 12, 5-(4-{[trans-3-(4-fluorophenyl)cyclobutyl]oxy}phenyl)isoxazol-3-ol], the EC50 at rat GPR120 came to 1.5 nM.

Take `Oc1cc(-c2ccc(O[C@H]3C[C@H](c4ccc(C(F)(F)F)cn4)C3)nc2)on1` [Example 23, 5-[6-({trans-3-[5-(trifluoromethyl)pyridin-2-yl]cyclobutyl}oxy)pyridin-3-yl]isoxazol-3-ol]: on rat GPR120, the response was half-maximal at 100 nM (EC50). On the same count and under the same terms, then `Oc1cc(-c2cnc(O[C@H]3C[C@H](Oc4cccc(OC(F)(F)F)c4)C3)cn2)on1` [Example 61, sodium 5-[5-({trans-3-[3-(trifluoromethoxy)phenoxy]-cyclobutyl}oxy)pyrazin-2-yl]isoxazol-3-olate], with 1.8 nM; and `Oc1cc(-c2ccc(O[C@H]3C[C@](F)(c4ccnc(OC5CCC5)c4)C3)nc2)on1` [Example 87, sodium 5-[6-({cis-3-[2-(cyclobutyloxy)pyridin-4-yl]-3-fluorocyclobutyl}oxy)pyridin-3-yl]isoxazol-3-olate], with 4.7 nM; and `Oc1cc(-c2ccc(O[C@H]3C[C@@](F)(c4ccnc(OC5CCC5)c4)C3)nc2)on1` [Example 88, 2-(cyclobutyloxy)-4-(trans-1-fluoro-3-{[5-(3-hydroxyisoxazol-5-yl)pyridinium-2-yl]oxy}cyclobutyl)pyridinium bis(trifluoroacetate)], with 42.2 nM. Still for that read-out and setting: then `Oc1cc(-c2cnc(O[C@H]3C[C@](F)(c4ccnc(OC5CC5)c4)C3)cn2)on1` [Example 91, ammonium 5-[5-({cis-3-[2-(cyclopropyloxy)pyridin-4-yl]-3-fluoro-cyclobutyl}oxy)pyrazin-2-yl]isoxazol-3-olate], with 36 nM; and `CCOc1cc([C@]2(F)C[C@@H](Oc3cnc(-c4cc(O)no4)cn3)C2)ccn1` [Example 94, 5-(5-{[cis-3-(2-ethoxypyridin-4-yl)-3-fluorocyclobutyl]oxy}pyrazin-2-yl)isoxazol-3-ol], with 890 nM; and `Oc1cc(-c2cnc(O[C@H]3C[C@@](F)(c4ccnc(OC5CCC5)c4)C3)cn2)on1` [Example 95, 5-[5-({trans-3-[2-(cyclobutyloxy)pyridin-4-yl]-3-fluorocyclobutyl}oxy)pyrazin-2-yl]isoxazol-3-ol], with 18 nM.

Molecule `Oc1cc(-c2cnc(O[C@H]3C[C@](F)(c4ccnc(OC5CCC5)c4)C3)cn2)on1` [Example 96, sodium 5-[5-({cis-3-[2-(cyclobutyloxy)pyridin-4-yl]-3-fluorocyclobutyl}oxy)pyrazin-2-yl]isoxazol-3-olate] came in with an EC50 on rat GPR120 of 33 nM. With `CC(C)Oc1cc([C@]2(F)C[C@@H](Oc3cnc(-c4cc(O)no4)cn3)C2)ccn1` [Example 100, sodium 5-[5-({cis-3-fluoro-3-[2-(propan-2-yloxy)pyridin-4-yl]cyclobutyl}oxy)pyrazin-2-yl]isoxazol-3-olate], the EC50 on human GPR120 was determined as 153 nM. Same read-out and setting: then `CC(C)Oc1cc([C@]2(F)C[C@H](Oc3cnc(-c4cc(O)no4)cn3)C2)ccn1` [Example 101, sodium 5-[5-({trans-3-fluoro-3-[2-(propan-2-yloxy)pyridin-4-yl]cyclobutyl}oxy)pyrazin-2-yl]isoxazol-3-olate], with 538 nM.

At rat GPR120, `Oc1cc(-c2cnc(O[C@H]3C[C@@](F)(c4nc(C(F)(F)F)cs4)C3)cn2)on1` [Example 102, ammonium 5-[5-({trans-3-fluoro-3-[4-(trifluoromethyl)-1,3-thiazol-2-yl]cyclobutyl}oxy)pyrazin-2-yl]isoxazol-3-olate] showed an EC50 of 1160 nM. Turning to `Oc1cc(-c2ccc(O[C@H]3C[C@@](F)(c4ccc(C(F)F)c(F)c4)C3)nc2)on1` [Example 103, 5-[6-({trans-3-[4-(difluoromethyl)-3-fluorophenyl]-3-fluorocyclobutyl}oxy)pyridin-3-yl)isoxazol-3-ol], the concentration giving a half-maximal response (EC50) on human GPR120 was determined as 40 nM. Molecule `Oc1cc(-c2ccc(O[C@H]3C[C@@](F)(c4ccc5c(c4)OC(F)(F)O5)C3)nc2)on1` [Example 104, ammonium 5-(6-{[trans-3-(2,2-difluoro-1,3-benzodioxol-5-yl)-3-fluorocyclobutyl]oxy}pyridin-3-yl)isoxazol-3-olate] returned a 50% effective concentration (EC50) at human GPR120 of 60 nM. Still for that read-out and setting: then `Oc1cc(-c2cnc(O[C@H]3C[C@@](F)(c4nc5ccccc5s4)C3)cn2)on1` [Example 105, ammonium 5-(5-{[trans-3-(1,3-benzothiazol-2-yl)-3-fluorocyclobutyl]oxy}pyrazin-2-yl)isoxazol-3-olate], with 237 nM. Still for that read-out and setting: then `Oc1cc(-c2cnc(O[C@H]3C[C@](F)(c4cc(OC(F)(F)F)ccc4F)C3)cn2)on1` [Example 106, 5-[5-({cis-3-fluoro-3-[2-fluoro-5-(trifluoromethoxy)phenyl]cyclobutyl}oxy)pyrazin-2-yl]isoxazol-3-ol], with 91 nM. Same read-out and setting: next, `Oc1cc(-c2cnc(O[C@H]3C[C@@](F)(c4cc(C(F)(F)F)ccc4F)C3)cn2)on1` [Example 107, 5-[5-({trans-3-fluoro-3-[2-fluoro-5-(trifluoromethyl)phenyl]cyclobutyl}oxy)pyrazin-2-yl]isoxazol-3-ol]: 215 nM.

`Oc1cc(-c2cnc(O[C@H]3C[C@@](F)(c4ccc(Cl)cc4)C3)cn2)on1` [Example 108, 5-(5-{[trans-3-(4-chlorophenyl)-3-fluorocyclobutyl]oxy}pyrazin-2-yl)isoxazol-3-ol] gave an EC50 at human GPR120 of 14 nM. On the same count and under the same terms, then `Oc1cc(-c2cnc(O[C@H]3C[C@@H](c4ccc(Cl)cc4)C3)nc2)on1` [Example 109, 5-(2-{[cis-3-(4-chlorophenyl)cyclobutyl]oxy}pyrimidin-5-yl)isoxazol-3-ol], with 11 nM. At human GPR120, `Oc1cc(-c2cnc(O[C@H]3C[C@@H](c4ccc(F)cc4)C3)nc2)on1` [Example 112, 5-(2-{[cis-3-(4-fluorophenyl)cyclobutyl]oxy}pyrimidin-5-yl)isoxazol-3-ol] displayed an EC50 of 647 nM. Same read-out and setting: next, `Oc1cc(-c2cnc(OC3CC(c4ccc5c(c4)OC(F)(F)O5)C3)nc2)on1` (stereo not shown) [Example 113, sodium 5-(2-{[3-(2,2-difluoro-1,3-benzodioxol-5-yl)cyclobutyl]oxy}pyrimidin-5-yl)isoxazol-3-olate]: 41 nM; `Cc1ccc([C@H]2C[C@@H](Oc3ncc(-c4cc(O)no4)cn3)C2)c(F)c1` [Example 114, sodium 5-(2-{[cis-3-(2-fluoro-4-methylphenyl)cyclobutyl]oxy}pyrimidin-5-yl)isoxazol-3-olate]: 191 nM.
